# Reference: patent US10072006B2 (MUTABILIS, priority 2015, dated 2018)
# Counter-ions that a name gives are not always drawn. Like-named read-outs stand apart in the source and are kept apart here.
# Experiments:
# [1] = target: T1, TEM-1 (Escherichia coli, UniProt P62593); assay: β-lactamase inhibitory activity, determination of IC50 (nitrocefin hydrolysis); type: biochemical; details: class (A), 30 min pre-incubation
# T1 construct: made in house; host or cells: E. coli
# [2] = tested on: C. murliniae 210102 (VIM-4); assay: MIC of compounds and synergy with ceftazidime (broth microdilution); type: cell-based; details: strain 210102 (C. murliniae)
# Procedure: (§1) Briefly, compounds alone according to the invention were prepared in DMSO and spotted (2 μL each) on sterile polystyrene plates (Corning, 3788). […] Microplates were incubated for 16-20 h at 35° C. in ambient air. The MIC of the compounds was defined as the lowest concentration of said compounds that prevented bacterial growth as read by visual inspection.
# [3] = tested on: E. cloacae P99 (Derepressed ampC); assay: as above; type: cell-based; details: strain P99 (E. cloacae); for MIC: Enterobacter cloacae, 18 h, read-out: MIC compounds of the invention alone; for MIC, combination of CAZ and compounds of the invention: MIC of ceftazidime with compound fixed at 4 μg/mL
# Procedure: as §1
# [4] = tested on: E. cloacae UFR38 (CTX-M-15, NDM-1); assay: as above; type: cell-based; details: strain UFR38 (E. cloacae)
# Procedure: as §1
# [5] = tested on: E. coli 131119 (TEM-1, OXA-48); assay: as above; type: cell-based; details: for MIC: Escherichia coli
# Procedure: as §1
# [6] = tested on: E. coli RGN238 (OXA-1); assay: as above; type: cell-based; details: for MIC: Escherichia coli
# Procedure: as §1
# [7] = tested on: E. coli UFR18 (CTX-M-15, OXA-204); assay: as above; type: cell-based; details: strain UFR18 (E. coli)
# Procedure: as §1
# [8] = tested on: E. coli UFR32 (TEM-1, VEB-1, OXA-10); assay: as above; type: cell-based; details: strain UFR32 (E. coli)
# Procedure: as §1
# [9] = tested on: E. coli UFR52 (TEM-1, SHV-12, IMP-8); assay: as above; type: cell-based; details: strain UFR52 (E. coli)
# Procedure: as §1
# [10] = tested on: E. coli UFR61O (TEM-1, KPC-2); assay: as above; type: cell-based
# Procedure: as §1
# [11] = tested on: E. coli UFR74 (SHV-1, DHA-1); assay: as above; type: cell-based; details: for MIC: Escherichia coli
# Procedure: as §1
# [12] = tested on: K. pneumoniae 6299 (TEM-1, SHV-11, OXA-163); assay: as above; type: cell-based; details: for MIC: Klebsiella pneumoniae; for MIC, combination of CAZ and compounds of the invention: MIC of ceftazidime with compound fixed at 4 μg/mL
# Procedure: as §1
# [13] = tested on: K. pneumoniae BAA-1898 (TEM-1, SHV-11, SHV-12, KPC-2); assay: as above; type: cell-based; details: for MIC: Klebsiella pneumoniae; for MIC, combination of CAZ and compounds of the invention: MIC of ceftazidime with compound fixed at 4 μg/mL
# Procedure: as §1
# [14] = tested on: K. pneumoniae UFR24 (TEM-1, SHV-2, SHV-11, OXA-1, OXA-48, OXA-47); assay: as above; type: cell-based; details: strain UFR24 (K. pneumoniae)
# Procedure: as §1
# [15] = tested on: K. pneumoniae UFR77 (CMY-2); assay: as above; type: cell-based; details: for MIC: Klebsiella pneumoniae
# Procedure: as §1
# [16] = tested on: P. aeruginosa CIP105250 (OXA-15); assay: as above; type: cell-based; details: for MIC, combination of CAZ and compounds of the invention: MIC of ceftazidime with compound fixed at 4 μg/mL; for MIC: Pseudomonas aeruginosa
# Procedure: as §1
# [17] = tested on: P. aeruginosa CIP107051 (TEM-24); assay: as above; type: cell-based; details: for MIC, combination of CAZ and compounds of the invention: MIC of ceftazidime with compound fixed at 4 μg/mL; for MIC: Pseudomonas aeruginosa
# Procedure: as §1
# [18] = tested on: P. aeruginosa UFR35 (OXA-23); assay: as above; type: cell-based; details: for MIC: Pseudomonas aeruginosa
# Procedure: as §1
# [19] = tested on: P. aeruginosa UFR47 (VIM-1); assay: as above; type: cell-based; details: strain UFR47 (P. aeruginosa)
# Procedure: as §1
# [20] = tested on: P. aeruginosa UFR48 (VIM-2); assay: as above; type: cell-based; details: for MIC: Pseudomonas aeruginosa
# Procedure: as §1
# [21] = tested on: P. aeruginosa UFR59 (IMP-29); assay: as above; type: cell-based; details: strain UFR59 (P. aeruginosa)
# Procedure: as §1
# [22] = tested on: E. coli 190317 (TEM-1, SHV-12, CTX-M-15, OXA-1); assay: microbe, parasite or virus in culture; type: cell-based
# Procedure: as §1
# [23] = tested on: P. aeruginosa UFR90 (Derepressed ampC, OprD-); assay: MIC of compounds and synergy with ceftazidime (broth microdilution); type: cell-based; details: Pseudomonas aeruginosa, read-out: MIC of CAZ
# Procedure: as §1
# [24] = tested on: P. aeruginosa UFR92 (Derepressed ampC, OprD-); assay: as above; type: cell-based; details: Pseudomonas aeruginosa, read-out: MIC of CAZ
# Procedure: as §1
# [25] = MIC of ceftazidime with compound fixed at 4 μg/mL
# [26] = 18 h, strain 131119 (E. coli), read-out: MIC compounds of the invention alone
# [27] = 18 h, strain RGN238 (E. coli), read-out: MIC compounds of the invention alone
# [28] = Escherichia coli, 18 h, read-out: MIC compounds of the invention alone
# [29] = 18 h, strain 6299 (K. pneumoniae), read-out: MIC compounds of the invention alone
# [30] = BAA1898, strain BAA-1898 (K. pneumoniae), read-out: MIC compounds of the invention alone
# [31] = strain BAA-1898 (K. pneumoniae)
# [32] = strain CIP105250 (P. aeruginosa)
# [33] = 18 h, strain CIP105250 (P. aeruginosa), read-out: MIC compounds of the invention alone
# [34] = strain CIP107051 (P. aeruginosa)
# [35] = 18 h, strain CIP107051 (P. aeruginosa), read-out: MIC compounds of the invention alone
# [36] = Pseudomonas aeruginosa, 18 h, read-out: MIC compounds of the invention alone
# T1 sequence (P62593 24-286 limits assumed): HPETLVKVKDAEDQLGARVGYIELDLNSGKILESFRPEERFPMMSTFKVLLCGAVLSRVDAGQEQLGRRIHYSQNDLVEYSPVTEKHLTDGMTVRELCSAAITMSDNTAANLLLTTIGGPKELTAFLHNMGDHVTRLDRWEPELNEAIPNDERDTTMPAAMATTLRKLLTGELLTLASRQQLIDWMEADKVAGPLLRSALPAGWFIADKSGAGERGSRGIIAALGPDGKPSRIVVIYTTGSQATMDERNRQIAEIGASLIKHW
smiles,measurement,setting,value
"NC[C@@H]1C=C(c2cnco2)[C@@H]2CN1C(=O)N2OS(=O)(=O)O (relative stereo) [Example 1, Sodium and 2,2,2-trifluoroacetate [trans-2-(azaniumylmethyl)-4-oxazol-5-yl-7-oxo-1,6-diazabicyclo[3.2.1]oct-3-en-6-yl] sulfate]",IC50,[1],3.2 nM
same,MIC,"[2]; 18 h, read-out: MIC compounds of the invention alone",> 32 µg/mL
same,"MIC, combination of CAZ and compounds of the invention",[2]; [25],0.5 µg/mL
same,MIC,[3],0.031 µg/mL
same,"MIC, combination of CAZ and compounds of the invention",[3],<0.25 µg/mL
same,MIC,"[4]; Enterobacter cloacae, 18 h, read-out: MIC compounds of the invention alone",≤ 0.016 µg/mL
same,"MIC, combination of CAZ and compounds of the invention",[4]; [25],<0.25 µg/mL
same,MIC,[5]; [26],32 µg/mL
same,"MIC, combination of CAZ and compounds of the invention","[5]; MIC of ceftazidime with compound fixed at 4 μg/mL, strain 131119 (E. coli)",<0.25 µg/mL
same,MIC,[6]; [27],> 32 µg/mL
same,"MIC, combination of CAZ and compounds of the invention","[6]; MIC of ceftazidime with compound fixed at 4 μg/mL, strain RGN238 (E. coli)",≤0.125 µg/mL
same,MIC,[7]; [28],0.031 µg/mL
same,"MIC, combination of CAZ and compounds of the invention",[7]; [25],<0.25 µg/mL
same,MIC,[8]; [28],0.031 µg/mL
same,"MIC, combination of CAZ and compounds of the invention",[8]; [25],<0.25 µg/mL
same,MIC,[9]; [28],2 µg/mL
same,"MIC, combination of CAZ and compounds of the invention",[9]; [25],<0.25 µg/mL
same,MIC,"[10]; Escherichia coli, strain UFR61O (E. coli), read-out: MIC compounds of the invention alone",0.031 µg/mL
same,"MIC, combination of CAZ and compounds of the invention","[10]; MIC of ceftazidime with compound fixed at 4 μg/mL, strain UFR610 (E. coli)",<0.25 µg/mL
same,MIC,"[11]; 18 h, strain UFR74 (E. coli), read-out: MIC compounds of the invention alone",> 32 µg/mL
same,"MIC, combination of CAZ and compounds of the invention","[11]; MIC of ceftazidime with compound fixed at 4 μg/mL, strain UFR74 (E. coli)",4 µg/mL
same,MIC,[12]; [29],> 32 µg/mL
same,"MIC, combination of CAZ and compounds of the invention",[12]; strain 6299 (K. pneumoniae),0.5 µg/mL
same,MIC,[13]; [30],> 32 µg/mL
same,"MIC, combination of CAZ and compounds of the invention",[13]; [31],0.5 µg/mL
same,MIC,"[14]; Klebsiella pneumoniae, 18 h, read-out: MIC compounds of the invention alone",> 32 µg/mL
same,"MIC, combination of CAZ and compounds of the invention",[14]; [25],4 µg/mL
same,MIC,"[15]; 18 h, strain UFR77 (K. pneumoniae), read-out: MIC compounds of the invention alone",> 32 µg/mL
same,"MIC, combination of CAZ and compounds of the invention","[15]; MIC of ceftazidime with compound fixed at 4 μg/mL, strain UFR77 (K. pneumoniae)",2 µg/mL
same,"MIC, combination of CAZ and compounds of the invention",[16]; [32],≤0.125 µg/mL
same,MIC,[16]; [33],> 32 µg/mL
same,"MIC, combination of CAZ and compounds of the invention",[17]; [34],<0.25 µg/mL
same,MIC,[17]; [35],2 µg/mL
same,"MIC, combination of CAZ and compounds of the invention","[18]; MIC of ceftazidime with compound fixed at 4 μg/mL, strain UFR35 (P. aeruginosa)",<0.25 µg/mL
same,MIC,"[18]; 18 h, strain UFR35 (P. aeruginosa), read-out: MIC compounds of the invention alone",1 µg/mL
same,"MIC, combination of CAZ and compounds of the invention",[19]; [25],<0.25 µg/mL
same,MIC,[19]; [36],2 µg/mL
same,"MIC, combination of CAZ and compounds of the invention","[20]; MIC of ceftazidime with compound fixed at 4 μg/mL, strain UFR48 (P. aeruginosa)",<0.25 µg/mL
same,MIC,"[20]; 18 h, strain UFR48 (P. aeruginosa), read-out: MIC compounds of the invention alone",4 µg/mL
same,"MIC, combination of CAZ and compounds of the invention",[21]; [25],<0.25 µg/mL
same,MIC,[21]; [36],8 µg/mL
COC[C@H]1C=C(c2cnco2)[C@@H]2CN1C(=O)N2OS(=O)(=O)[O-].[Na+] (relative stereo) [Example 4],"MIC, combination of CAZ and compounds of the invention",[3],64 µg/mL
same,MIC compounds of the invention alone,[3],>32 µg/mL
same,MIC compounds of the invention alone,[5]; strain 131119 (E. coli),>32 µg/mL
same,MIC compounds of the invention alone,[6]; strain RGN238 (E. coli),>32 µg/mL
same,"MIC, combination of CAZ and compounds of the invention",[12]; strain 6299 (K. pneumoniae),128 µg/mL
same,MIC compounds of the invention alone,[12]; strain 6299 (K. pneumoniae),>32 µg/mL
same,"MIC, combination of CAZ and compounds of the invention",[13]; [31],64 µg/mL
same,MIC compounds of the invention alone,[13]; [31],>32 µg/mL
same,"MIC, combination of CAZ and compounds of the invention",[16]; [32],128 µg/mL
same,MIC compounds of the invention alone,[16]; [32],>32 µg/mL
same,"MIC, combination of CAZ and compounds of the invention",[17]; [34],64 µg/mL
same,MIC compounds of the invention alone,[17]; [34],>32 µg/mL
same,"MIC, combination of CAZ and compounds of the invention","[22]; MIC of ceftazidime with compound fixed at 4 μg/mL, strain 190317 (E. coli)",4 µg/mL
same,MIC compounds of the invention alone,[22]; strain 190317 (E. coli),>32 µg/mL
"CC(C)(O/N=C(\C(=O)N[C@@H]1C(=O)N2C(C(=O)[O-])=C(C[n+]3ccccc3)CS[C@H]12)c1csc(N)n1)C(=O)O [CAZ, ceftazidime, reference compound]",MIC,[5]; read-out: MIC of CAZ,0.5 µg/mL
same,MIC,[6]; read-out: MIC of CAZ,0.5 µg/mL
same,MIC,[11]; read-out: MIC of CAZ,64 µg/mL
same,MIC,[12]; read-out: MIC of CAZ,256 µg/mL
same,MIC,"[13]; BAA1898, read-out: MIC of CAZ",256 µg/mL
same,MIC,[15]; read-out: MIC of CAZ,64 µg/mL
same,MIC,"[16]; CIP105250, read-out: MIC of CAZ",256 µg/mL
same,MIC,"[17]; CIP107051, read-out: MIC of CAZ",256 µg/mL
same,MIC,[18]; read-out: MIC of CAZ,2 µg/mL
same,MIC,[20]; read-out: MIC of CAZ,256 µg/mL
same,MIC,[23],64 µg/mL
same,MIC,[24],32 µg/mL
"N=C(N)NC[C@@H]1C(c2nccs2)=C[C@@H]2CN1C(=O)N2OS(=O)(=O)O [Example 7, [(2S,5R)-2-(guanidinomethyl)-7-oxo-3-thiazol-2-yl-1,6-diazabicyclo[3.2.1]oct-3-en-6-yl] hydrogen sulfate]",MIC,[3],0.031 µg/mL
same,"MIC, combination of CAZ and compounds of the invention",[3],<0.125 µg/mL
same,MIC,[5]; [26],0.031 µg/mL
same,MIC,[6]; [27],16 µg/mL
same,MIC,[12]; [29],> 32 µg/mL
same,"MIC, combination of CAZ and compounds of the invention",[12]; strain 6299 (K. pneumoniae),2 µg/mL
same,MIC,[13]; [30],> 32 µg/mL
same,"MIC, combination of CAZ and compounds of the invention",[13]; [31],≤0.125 µg/mL
same,"MIC, combination of CAZ and compounds of the invention",[16]; [32],32 µg/mL
same,MIC,[16]; [33],32 µg/mL
same,"MIC, combination of CAZ and compounds of the invention",[17]; [34],1 µg/mL
same,MIC,[17]; [35],8 µg/mL
same,MIC,[22]; [28],0.063 µg/mL
